Data reported in US9113629B2, “4-amino-6-(4-substituted-phenyl)-picolinates and 6-amino-2-(4-substituted-phenyl)-pyrimidine-4-carboxylates and their use as herbicides” (DOW AGROSCIENCES LLC, priority 2013, dated 2015).

Key:
[1] = Post-emergent Test III, herbicidal activity in wheat and barley; type: in vivo, Lolium multiflorum, Lolium rigidum; details: Lolium multiflorum, post-emergence, 504 h, read-out: Visual Growth Reduction (%) 21 Days After Application LOLSS; for pest or weed control at 35 g/ha: 35 g ai/ha; for pest or weed control at 70 g/ha: 70 g ai/ha; for pest or weed control at 140 g/ha: 140 g ai/ha
Description: (§1) Post-emergent Test III. Seeds of the desired test plant species were planted in Sun Gro MetroMix® 306 planting mixture, which typically has a pH of 6.0 to 6.8 and an organic matter content of about 30 percent, in plastic pots with a surface area of 103.2 square centimeters (cm^2). When required to ensure good germination and healthy plants, a fungicide treatment and/or other chemical or physical treatment was applied. The plants were grown for 7-36 days (d) in a greenhouse with an approximate 14 hour (h) photoperiod which was maintained at about 18° C. during the day and 17° C. during the night. Nutrients and water were added on a regular basis and supplemental lighting was provided with overhead metal halide 1000-Watt lamps as necessary. The plants were employed for testing when they reached the second or third true leaf stage.
(§2) A weighed amount, determined by the highest rate to be tested, of each test compound was placed in a 25 mL glass vial and was dissolved in 4 mL of a 97:3 v/v mixture of acetone and DMSO to obtain concentrated stock solutions. […] The concentrated stock solutions obtained were diluted with 20 mL of an aqueous mixture containing acetone, water, isopropyl alcohol, DMSO, Agri-Dex crop oil concentrate, and X-77 surfactant in a 48:39:10:1.5:1.5:0.02 v/v ratio to obtain spray solutions containing the highest application rates. Additional application rates were obtained by serial dilution of 12 mL of the high rate solution into a solution containing 2 mL of 97:3 v/v mixture of acetone and DMSO and 10 mL of an aqueous mixture containing acetone, water, isopropyl alcohol, DMSO, Agri-Dex crop oil concentrate, and X-77 surfactant in a 48:39:10:1.5:1.5:0.02 v/v ratio to obtain ½×, ¼×, ⅛× and 1/16× rates of the high rate. Compound requirements are based upon a 12 mL application volume at a rate of 187 liters per hectare (L/ha). Formulated compounds were applied to the plant material with an overhead Mandel track sprayer equipped with 8002E nozzles calibrated to deliver 187 L/ha over an application area of 0.503 square meters at a spray height of 18 inches (43 cm) above the average plant canopy height. Control plants were sprayed in the same manner with the solvent blank.
(§3) The treated plants and control plants were placed in a greenhouse as described above and watered by subirrigation to prevent wash-off of the test compounds. After 21 d, the condition of the test plants as compared with that of the untreated plants was determined visually and scored on a scale of 0 to 100 percent where 0 corresponds to no injury and 100 corresponds to complete kill.
(§4) By applying the well-accepted probit analysis as described by J. Berkson in Journal of the American Statistical Society, 48, 565 (1953) and by D. Finney in “Probit Analysis” Cambridge University Press (1952), herbicidal injury of a specific compound at various rates can be used to calculate GR20, GR50, GR80 and GR90 values, which are defined as growth reduction factors that correspond to the effective dose of herbicide required to provide plant growth reduction (GR) of 20 percent, 50 percent, 80 percent and 90 percent, respectively. Probit analysis was applied to data collected from multiple dose rates of individual compounds utilizing the procedures explained in the following examples. The analysis of those dose rates is captured in the following tables.

[2] = test system: APESV: bentgrass (Apera spica-venti); assay: as above; type: in vivo; details: for pest or weed control at 35 g/ha / pest or weed control at 70 g/ha / pest or weed control at 140 g/ha: Apera spica-venti, post-emergence, 504 h, read-out: Visual Growth Reduction (%) 21 Days After Application APESV; for pest or weed control at 35 g/ha: 35 g ai/ha; for pest or weed control at 70 g/ha: 70 g ai/ha; for pest or weed control at 140 g/ha: 140 g ai/ha; for GR50 APESV / GR80 APESV: probit analysis, 21 days after application; for GR50 APESV: dose for growth reduction of 50 percent; for GR80 APESV: dose for growth reduction of 80 percent
Description: as §1, §2, §3, §4

[3] = test system: HORSS: barley, including spring and winter (Hordeum vulgare); assay: as above; type: in vivo
Description: as §1, §2, §3, §4

[4] = test system: KCHSC: kochia (Kochia scoparia); assay: as above; type: in vivo; details: for pest or weed control at 35 g/ha / pest or weed control at 70 g/ha / pest or weed control at 140 g/ha: Bassia scoparia, post-emergence, 504 h, read-out: Visual Growth Reduction (%) 21 Days After Application KCHSC; for pest or weed control at 35 g/ha: 35 g ai/ha; for pest or weed control at 70 g/ha: 70 g ai/ha; for pest or weed control at 140 g/ha: 140 g ai/ha; for GR50 KCHSC / GR80 KCHSC: probit analysis, 21 days after application; for GR50 KCHSC: dose for growth reduction of 50 percent; for GR80 KCHSC: dose for growth reduction of 80 percent
Description: as §1, §2, §3, §4

[5] = test system: MATSS: scented mayweed (Matricaria chamomilla), pineappleweed (Matricaria matricarioides); assay: as above; type: in vivo; details: for pest or weed control at 35 g/ha / pest or weed control at 70 g/ha / pest or weed control at 140 g/ha: Matricaria chamomilla, post-emergence, 504 h, read-out: Visual Growth Reduction (%) 21 Days After Application MATSS; for pest or weed control at 35 g/ha: 35 g ai/ha; for pest or weed control at 70 g/ha: 70 g ai/ha; for pest or weed control at 140 g/ha: 140 g ai/ha; for GR50 MATSS / GR80 MATSS: probit analysis, 21 days after application; for GR50 MATSS: dose for growth reduction of 50 percent; for GR80 MATSS: dose for growth reduction of 80 percent
Description: as §1, §2, §3, §4

[6] = test system: SETVI: green foxtail (Setaria viridis); assay: as above; type: in vivo
Description: as §1, §2, §3, §4

[7] = test system: TRZSS: wheat, including spring and winter (Triticum aestivum); assay: as above; type: in vivo
Description: as §1, §2, §3, §4

[8] = test system: LOLSS: ryegrass including, Italian ryegrass (Lolium multiflorum), rigid ryegrass (Lolium rigidum), annual ryegrass (Lolium multiflorum subsp. Gaudini); assay: as above; type: in vivo; details: probit analysis, 21 days after application; for GR50 LOLSS: dose for growth reduction of 50 percent; for GR80 LOLSS: dose for growth reduction of 80 percent
Description: as §1, §2, §3, §4

[9] = probit analysis, dose for growth reduction of 20 percent, 21 days after application, crop

Row | Structure (SMILES) | pest or weed control at 35 g/ha [1] [%] | pest or weed control at 70 g/ha [1] [%] | pest or weed control at 140 g/ha [1] [%] | pest or weed control at 35 g/ha [2] [%] | pest or weed control at 70 g/ha [2] [%] | pest or weed control at 140 g/ha [2] [%] | GR50 APESV [2] [g ai/ha] | GR80 APESV [2] [g ai/ha] | pest or weed control at 35 g/ha [4] [%] | pest or weed control at 70 g/ha [4] [%] | pest or weed control at 140 g/ha [4] [%] | GR50 KCHSC [4] [g ai/ha] | GR80 KCHSC [4] [g ai/ha] | pest or weed control at 35 g/ha [5] [%] | pest or weed control at 70 g/ha [5] [%] | pest or weed control at 140 g/ha [5] [%] | GR50 MATSS [5] [g ai/ha] | GR80 MATSS [5] [g ai/ha] | GR50 LOLSS [8] [g ai/ha] | GR80 LOLSS [8] [g ai/ha] | further results
1 | COC(=O)c1nc(-c2ccc(OC(F)F)cc2)c(F)c(N)c1Cl [Compound 85] | 0 to 29 | 0 to 29 | 0 to 29 | 0 to 29 | 0 to 29 | 0 to 29 | >140 | >140 | 0 to 29 | 0 to 29 | 0 to 29 | >140 | >140 | 0 to 29 | 0 to 29 | 0 to 29 | 88 | >140 | – | – | pest or weed control at 35 g/ha ([3]; Hordeum vulgare, post-emergence, 504 h, 35 g ai/ha, read-out: Visual Growth Reduction (%) 21 Days After Application HORSS): 0 to 29%; pest or weed control at 70 g/ha ([3]; Hordeum vulgare, post-emergence, 504 h, 70 g ai/ha, read-out: Visual Growth Reduction (%) 21 Days After Application HORSS): 30 to 44%; pest or weed control at 140 g/ha ([3]; Hordeum vulgare, post-emergence, 504 h, 140 g ai/ha, read-out: Visual Growth Reduction (%) 21 Days After Application HORSS): 60 to 74%; GR20 HORSS [3, 9]: 33 g ai/ha; pest or weed control at 35 g/ha ([6]; Setaria viridis, post-emergence, 504 h, 35 g ai/ha, read-out: Visual Growth Reduction (%) 21 Days After Application SETVI): 0 to 29%; pest or weed control at 70 g/ha ([6]; Setaria viridis, post-emergence, 504 h, 70 g ai/ha, read-out: Visual Growth Reduction (%) 21 Days After Application SETVI): 0 to 29%; pest or weed control at 140 g/ha ([6]; Setaria viridis, post-emergence, 504 h, 140 g ai/ha, read-out: Visual Growth Reduction (%) 21 Days After Application SETVI): 0 to 29%; GR50 SETVI ([6]; probit analysis, dose for growth reduction of 50 percent, 21 days after application): >140 g ai/ha; GR80 SETVI ([6]; probit analysis, dose for growth reduction of 80 percent, 21 days after application): >140 g ai/ha; pest or weed control at 35 g/ha ([7]; Triticum aestivum, post-emergence, 504 h, 35 g ai/ha, read-out: Visual Growth Reduction (%) 21 Days After Application TRZSS): 60 to 74%; pest or weed control at 70 g/ha ([7]; Triticum aestivum, post-emergence, 504 h, 70 g ai/ha, read-out: Visual Growth Reduction (%) 21 Days After Application TRZSS): 60 to 74%; pest or weed control at 140 g/ha ([7]; Triticum aestivum, post-emergence, 504 h, 140 g ai/ha, read-out: Visual Growth Reduction (%) 21 Days After Application TRZSS): 60 to 74%; GR20 TRZSS [7, 9]: 1 g ai/ha
2 | COC(=O)c1nc(-c2ccc(Br)c(F)c2F)c(F)c(N)c1Cl [Compound 109, methyl 4-amino-6-(4-bromo-2,3-difluorophenyl)-3-chloro-5-fluoropicolinate] | 45 to 59 | 45 to 59 | – | 85 to 94 | 85 to 94 | – | 1 | 6 | 85 to 94 | 85 to 94 | – | 3 | 19 | 30 to 44 | 45 to 59 | – | 72 | >140 | 34 | >140 | –
3 | Nc1c(F)c(-c2ccc(Br)c(F)c2F)nc(C(=O)O)c1Cl [Compound 147] | 30 to 44 | 45 to 59 | 60 to 74 | 85 to 94 | 85 to 94 | 85 to 94 | 5 | 16 | 85 to 94 | 95 to 100 | 85 to 94 | 4 | 19 | 95 to 100 | 95 to 100 | 95 to 100 | 6 | 14 | 71 | >140 | –
4 | COC(=O)c1nc(-c2ccc(C(F)F)cc2)c(F)c(N)c1Cl [Compound 209] | 0 to 29 | 30 to 44 | – | 0 to 29 | 0 to 29 | – | >140 | >140 | 60 to 74 | 85 to 94 | – | 12 | 42 | 0 to 29 | 0 to 29 | – | >140 | >140 | 93 | >140 | –
5 | C=Cc1c(C(=O)O)nc(-c2ccc(Cl)c(F)c2)c(F)c1N [Compound 214] | 30 to 44 | 45 to 59 | 85 to 94 | 0 to 29 | 30 to 44 | 45 to 59 | 110 | >140 | 75 to 84 | 85 to 94 | 95 to 100 | 7 | 52 | 75 to 84 | 85 to 94 | 85 to 94 | 4 | 41 | 59 | >140 | –
